Test results taken from the supplement of paper PMC10307832.

Experiments:
Experiment in all cases: relative viability (nuclei count vs DMSO), 5 days (fraction); higher = more cells survive
[1] = test system: HCC-44
How it was run: (§1)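 Each reported value is a median over duplicate plates. It expresses relative viability: treated-well nuclei count divided by vehicle-well nuclei count. Lung cancer cell lines in 1536-well plates were dosed by pin tool a day after seeding, alone with one drug or with a fixed anchor-drug dose plus five library-drug doses (not always all listed) in √10 steps, and nuclei were counted after 5 days.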

[2] = test system: NCI-H1975
How it was run: as §1

[3] = test system: LOU-NH91
How it was run: as §1

[4] = test system: NCI-H1755
How it was run: as §1

[5] = test system: LU99A
How it was run: as §1

[6] = test system: NCI-H460
How it was run: as §1

[7] = test system: NCI-H1563
How it was run: as §1

[8] = test system: NCI-H1437
How it was run: as §1

[9] = test system: HCC-366
How it was run: as §1

[10] = test system: BEN
How it was run: as §1

[11] = test system: NCI-H1734
How it was run: as §1

[12] = test system: NCI-H441
How it was run: as §1

[13] = test system: NCI-H838
How it was run: as §1

[14] = test system: NCI-H2023
How it was run: as §1

[15] = test system: NCI-H1651
How it was run: as §1

[16] = test system: EKVX
How it was run: as §1

[17] = test system: CAL-12T
How it was run: as §1

[18] = test system: NCI-H2085
How it was run: as §1

[19] = test system: NCI-H1355
How it was run: as §1

[20] = test system: NCI-H1650
How it was run: as §1

## Oc1nc(-c2ccc(C(F)(F)F)cc2)nc2c1CSCC2 [XAV939] + CC(C)C[C@H](NC(=O)[C@H](Cc1ccccc1)NC(=O)c1cnccn1)B(O)O [Bortezomib] (partner 0.002 µM)
[1]; first compound 0.08 µM
  relative viability: 0.909
[1]; first compound 0.253 µM
  relative viability: 0.809
[1]; first compound 0.8 µM
  relative viability: 0.854
[1]; first compound 2.53 µM
  relative viability: 0.824
[2]; first compound 0.08 µM
  relative viability: 0.305
[2]; first compound 0.253 µM
  relative viability: 0.352
[2]; first compound 0.8 µM
  relative viability: 0.346
[2]; first compound 2.53 µM
  relative viability: 0.349
[3]; first compound 0.08 µM
  relative viability: 0.438
[3]; first compound 0.253 µM
  relative viability: 0.464
[3]; first compound 0.8 µM
  relative viability: 0.49
[3]; first compound 2.53 µM
  relative viability: 0.415
[4]; first compound 0.08 µM
  relative viability: 0.91
[4]; first compound 0.253 µM
  relative viability: 0.884
[4]; first compound 0.8 µM
  relative viability: 0.86
[4]; first compound 2.53 µM
  relative viability: 0.868
[5]; first compound 0.08 µM
  relative viability: 1.26
[5]; first compound 0.253 µM
  relative viability: 0.714
[5]; first compound 0.8 µM
  relative viability: 1.01
[5]; first compound 2.53 µM
  relative viability: 1.19
[6]; first compound 0.08 µM
  relative viability: 1.45
[6]; first compound 0.253 µM
  relative viability: 1.07
[6]; first compound 0.8 µM
  relative viability: 1.05
[6]; first compound 2.53 µM
  relative viability: 1.08
[7]; first compound 0.08 µM
  relative viability: 0.835
[7]; first compound 0.253 µM
  relative viability: 0.81
[7]; first compound 0.8 µM
  relative viability: 0.798
[7]; first compound 2.53 µM
  relative viability: 0.764
[8]; first compound 0.08 µM
  relative viability: 0.641
[8]; first compound 0.253 µM
  relative viability: 0.548
[8]; first compound 0.8 µM
  relative viability: 0.512
[8]; first compound 2.53 µM
  relative viability: 0.376
[9]; first compound 0.08 µM
  relative viability: 1.12
[9]; first compound 0.253 µM
  relative viability: 0.991
[9]; first compound 0.8 µM
  relative viability: 1.01
[9]; first compound 2.53 µM
  relative viability: 1.05
[10]; first compound 0.08 µM
  relative viability: 0.709
[10]; first compound 0.253 µM
  relative viability: 0.733
[10]; first compound 0.8 µM
  relative viability: 0.559
[11]; first compound 0.08 µM
  relative viability: 1.04
[11]; first compound 0.253 µM
  relative viability: 0.907
[11]; first compound 0.8 µM
  relative viability: 0.709
[11]; first compound 2.53 µM
  relative viability: 0.86
[12]; first compound 0.08 µM
  relative viability: 0.45
[12]; first compound 0.253 µM
  relative viability: 0.401
[12]; first compound 0.8 µM
  relative viability: 0.572
[12]; first compound 2.53 µM
  relative viability: 0.681
[13]; first compound 0.08 µM
  relative viability: 0.852
[13]; first compound 0.253 µM
  relative viability: 0.683
[13]; first compound 0.8 µM
  relative viability: 0.893
[13]; first compound 2.53 µM
  relative viability: 0.527
[14]; first compound 0.08 µM
  relative viability: 1.11
[14]; first compound 0.253 µM
  relative viability: 0.785
[14]; first compound 0.8 µM
  relative viability: 0.833
[14]; first compound 2.53 µM
  relative viability: 0.792
[15]; first compound 0.08 µM
  relative viability: 0.906
[15]; first compound 0.253 µM
  relative viability: 0.905
[15]; first compound 0.8 µM
  relative viability: 0.942
[15]; first compound 2.53 µM
  relative viability: 0.925
[16]; first compound 0.08 µM
  relative viability: 1.12
[16]; first compound 0.253 µM
  relative viability: 0.882
[16]; first compound 0.8 µM
  relative viability: 0.773
[16]; first compound 2.53 µM
  relative viability: 0.573
[17]; first compound 0.08 µM
  relative viability: 0.981
[17]; first compound 0.253 µM
  relative viability: 0.856
[17]; first compound 0.8 µM
  relative viability: 0.89
[17]; first compound 2.53 µM
  relative viability: 0.977
[18]; first compound 0.08 µM
  relative viability: 1.02
[18]; first compound 0.253 µM
  relative viability: 1.03
[18]; first compound 0.8 µM
  relative viability: 0.975
[18]; first compound 2.53 µM
  relative viability: 0.992
[19]; first compound 0.08 µM
  relative viability: 1.17
[19]; first compound 0.253 µM
  relative viability: 1.06
[19]; first compound 0.8 µM
  relative viability: 1.21
[19]; first compound 2.53 µM
  relative viability: 0.81
[20]; first compound 0.08 µM
  relative viability: 0.178
[20]; first compound 0.253 µM
  relative viability: 0.211
[20]; first compound 0.8 µM
  relative viability: 0.222
[20]; first compound 2.53 µM
  relative viability: 0.215
